Experimental data taken from the NIST ThermoML archive (doi:10.1016/j.jct.2011.02.006).

What was measured:
[1] = for viscosity / mass density: 101.33 kPa, Liquid; for viscosity: Falling or rolling sphere viscometry; for mass density: Vibrating tube method
[2] = Molar enthalpy of transition or fusion; conditions: Crystal; DSC

CCCC[n+]1ccc2ccccc2c1.O=S(=O)([N-]S(=O)(=O)C(F)(F)F)C(F)(F)F [2-butylisoquinolinium bis[(trifluoromethyl)sulfonyl]amide]
[1]
Conditions	mass density [kg/m3]	viscosity [mPa·s]
323.2 K	1413.21	71.07
328.2 K	1408.78	56.23
333.2 K	1404.32	45.14
338.2 K	1399.88	38.46
343.2 K	1395.47	32.08
348.2 K	1391.06	27.1
353.2 K	1386.66	23.02
358.2 K	1382.26	19.87
363.2 K	1377.88	16.14

[1], DTA
Conditions	Glass transition temperature [°C]	Normal melting temperature [°C]
Crystal	–	48
Glass	-55.2	–

Conditions	Molar enthalpy of transition or fusion [kJ/mol]
[2]	46.1
